We go through four molecules from patent publication US4576959A, “6-Substituted-4-dialkylaminotetrahydrobenz[c,d]indoles” (priority 1985, dated 1986).

Usually IC50 stands for the midpoint of a concentration-inhibition curve.

A short description of experiment [1]: Serum corticosteroids (corticosterone). It is filed as in vivo, Wistar rats. Conditions: 0.3 mg./kg. s.c., 1 hour before rats were killed; control 7 ± 1; * = statistically significant. The procedure: (§1) The following protocol was employed. 150-200 g. Wistar rats were given 0.3 mg./kg. subcutaneously of (±)-4-di-n-propylamino-6-substituted-1,3,4,5-tetrahydrobenz[c,d]indole.Then, 60 minutes later each rat was decapitated and the hypothalamus and striatum were dissected out and extracted. The amounts of homovanillic acid (HVA) and 3,4-dihydroxyphenylacetic acid (DOPAC) in the striatum and of 5-hydroxyindoleacetic acid (5HIAA) in the hypothalamus were measured by high-performance liquid chromatography, using electrochemical detection. Serum corticosteroids were also measured. In the table, columns 1 and 2 give the substitution pattern in the compounds of formula IV, columns 3-5, the 5HT or dopamine metabolite concentrations, and column 6, the serum corticosteroids.

For experiment [2], the target named is T1, ^3 H-spiperone (^3 H-SPIP) receptor binding, cerebral cortex (Rattus norvegicus, UniProt P14842).
T1 construct: The cerebral cortex was dissected out and then homogenized and centrifuged; from tissue; host or cells: cerebral cortex membranes of male Wistar rats
The experiment is described as follows: Inhibition of ^3 H-spiperone (^3 H-SPIP) specific binding in rat cerebral cortex membranes. Details: species or system male Wistar rats. Conditions: ^3 H-spiperone 0.6-0.7 nM, 15 minutes at 37°, pH=7.4, values in nanomoles of inhibitor, read-out: ^3 H-Ligand-IC50, ^3 H-SPIP.
Protocol: Brain tissue was obtained from 150-200 g. male Wistar rats. The cerebral cortex was dissected out and then homogenized and centrifuged according to the method described by Nelson and coworkers, Mol. Pharmacol., 14, 983-995 (1978), using preincubation in buffer without added monoamine oxidase inhibitor in order to eliminate endogenous serotonin. For receptor binding, each sample contained 300-400 μg. of membrane protein and 10 μM pargyline in addition to the ^3 H-ligand in 1 ml. of 0.05M tris buffer, pH=7.4. The assay of serotinin binding was done following the method of Bennett and Snyder, Mol. Pharmacol., 12, 373-389 (1976), and that for tritiated spiperone according to Peroutka and Snyder, Mol. Pharmacol., 16, 687-699 (1979). The samples were incubated for 15 minutes at 37° and were then filtered through GF/C glass fiber filter pads using a Brandel M-24 cell harvester modified for receptor binding. After two 5 ml. rinses, the filter discs were put into scintillation vials and counted in 10 ml. of Amersham PCS scintillation fluid. Nonspecific binding of ^3 H-serotonin (^3 H-5HT) was determined in the presence of 10^-5 M serotonin and of ^3 H-spiperone in the presence of 10^-6 M LSD. Specific binding was calculated as the difference between total binding with no added nonradioactive compound and the nonspecific binding.

Experiment [3] has as its system central serotonin (5HIAA in hypothalamus). The experiment is described as follows: Decrease of serotonin metabolite 5HIAA in hypothalamus as a measure of central serotonin agonist activity. Type of experiment: in vivo, Wistar rats. Conditions: 0.3 mg./kg. s.c., 1 hour before rats were killed; control 2.59 ± .11; * = statistically significant. As for the experimental part:
(§2) Secondly, as a measure of central serotonin agonist activity, the decrease of serotonin metabolites in brain was measured. Also the measure of dopamine agonist activity was indicated by changes in dopamine metabolites.
as §1

Experiment [4] deals with ^3 H-serotonin (^3 H-5HT) receptor binding, cerebral cortex. The experiment is described as follows: Inhibition of ^3 H-serotonin (^3 H-5HT) specific binding in rat cerebral cortex membranes. Details: species or system male Wistar rats. Conditions: ^3 H-serotonin 2-3 nM, 15 minutes at 37°, pH=7.4, values in nanomoles of inhibitor, read-out: ^3 H-Ligand-IC50, ^3 H-5HT.
Experiment [5] has as its system dopamine (metabolites in striatum). Kind of experiment: Changes in dopamine metabolites (DOPAC, HVA) in striatum as a measure of dopamine agonist activity. It is filed as in vivo, Wistar rats. Conditions: 0.3 mg./kg. s.c., 1 hour before rats were killed, * = statistically significant; for Dopamine Metabolites In Striatum, HVA: control 4.24 ± .27; for Dopamine Metabolites In Striatum, DOPAC: control 5.58 ± .38. As for the experimental part: as §2, §1

Experiment [6] relates to dopamine uptake in bovine striatal membrane. Conditions: cited from earlier work.

T1 sequence (P14842 whole entry): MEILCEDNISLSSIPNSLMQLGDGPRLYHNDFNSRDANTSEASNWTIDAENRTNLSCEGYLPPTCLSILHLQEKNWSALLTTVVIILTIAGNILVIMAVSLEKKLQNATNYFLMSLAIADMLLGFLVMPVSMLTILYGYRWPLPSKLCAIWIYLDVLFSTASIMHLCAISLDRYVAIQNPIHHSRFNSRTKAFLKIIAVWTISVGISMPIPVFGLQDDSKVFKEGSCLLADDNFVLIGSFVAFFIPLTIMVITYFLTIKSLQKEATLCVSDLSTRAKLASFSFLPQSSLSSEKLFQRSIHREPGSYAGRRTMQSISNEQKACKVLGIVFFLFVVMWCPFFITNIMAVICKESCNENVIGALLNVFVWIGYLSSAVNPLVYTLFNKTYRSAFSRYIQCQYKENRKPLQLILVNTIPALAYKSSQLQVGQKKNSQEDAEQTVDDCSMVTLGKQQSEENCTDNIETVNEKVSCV

Take `CCCN(CCC)C1Cc2c[nH]c3ccc(C#N)c(c23)C1` (racemic) [(±)-4-Di-n-propylamino-6-cyano-1,3,4,5-tetrahydrobenz[c,d]indole]: the “Serum Corticosterone” value in experiment [1] was determined as 47 ± 4 MCG/100 ML. Besides, the half-maximal inhibitory concentration (IC50) in experiment [2] was 390 nM. In experiment [3], the “5HIAA In Hypothalamus” value is 2.34 ± .07 NMoles/G. The IC50 in experiment [4] amounted to 90 nM. Also, in experiment [5], the “Dopamine Metabolites In Striatum, HVA” value was 2.27 ± .16 NMoles/G and the “Dopamine Metabolites In Striatum, DOPAC” value is reported as 4.25 ± .25 NMoles/G.
On to `CCCN(CCC)C1Cc2c[nH]c3ccc([N+](=O)[O-])c(c23)C1` (racemic) [(±)-4-Di-n-propylamino-6-nitro-1,3,4,5-tetrahydrobenz[c,d]indole], for which the “Serum Corticosterone” value in experiment [1] is listed as 49 ± 2 MCG/100 ML. Further, the IC50 in experiment [2] was found to be 400 nM. In addition, in experiment [3], the “5HIAA In Hypothalamus” value is given as 2.29 ± .03 NMoles/G. The half-inhibitory concentration (IC50) in experiment [4] stood at 100 nM. Moreover, in experiment [5], the “Dopamine Metabolites In Striatum, HVA” value is on record as 2.02 ± .20 NMoles/G and the “Dopamine Metabolites In Striatum, DOPAC” value is reported as 3.74 ± .11 NMoles/G.
For the molecule `CCCN(CCC)C1Cc2c[nH]c3ccc(C(N)=O)c(c23)C1` (racemic) [(±)-4-Di-n-propylamino-6-carbamoyl-1,3,4,5-tetrahydrobenz[c,d]indole], the “Serum Corticosterone” value in experiment [1] stood at 49 ± 2 MCG/100 ML. Moreover, in experiment [2], the 50% inhibitory concentration (IC50) came to 4980 nM. Moreover, the “5HIAA In Hypothalamus” value in experiment [3] is 1.58 ± .03 NMoles/G. Also, the IC50 in experiment [4] worked out at 60 nM. Further, in experiment [5], the “Dopamine Metabolites In Striatum, HVA” value is reported as 4.12 ± .27 NMoles/G and the “Dopamine Metabolites In Striatum, DOPAC” value is recorded as 6.23 ± .56 NMoles/G.
For `CCCN(CCC)C1Cc2cccc3[nH]cc(c23)C1` (racemic) [(±)-4-(di-n-propyl)amino-1,3,4,5-tetrahydrobenz[c,d]indole], the “dopamine agonist action (inhibiting dopamine uptake in bovine striatal membrane in vitro)” value in experiment [6] is on record as “selective dopamine agonist”.
